# Measured values reported in US12281125B2, “Rapamycin derivatives” (NOVARTIS AG, priority 2018, dated 2025).
# Columns and labels:
# [1] = target: T1, FKBP12 (Homo sapiens, UniProt P62942); experiment: SPR assay, binding affinity to FKBP12; details: equilibrium dissociation constant
# T1 construct: made in house; host or cells: E. coli
# From the text: (§1) N-terminal avi-his6-tagged FKBP fusion proteins were expressed in E. coli and purified with nickel chromatography using standard procedures. Biotinylated his-avi-FKBPs were immobilized on a streptavidin chip using a Biacore 8K (GE Healthcare). […] The single-cycle kinetics data were fit to a 1:1 binding model to measure the association rate ka (1/Ms), the dissociation rate kd (1/s) and the affinity KD (M). […] The single-cycle kinetics data was fit to a 1:1 binding model to measure the association rate ka (1/Ms), the dissociation rate kd (1/s) and the apparent affinity KD (M) for ternary complex formation. The equilibrium dissociation constants (KD) to FKBP12, FKBP51, and FKBP52 are shown below in Table 6.
# [2] = test system: mTORc1 signaling, pS6 (Ser240/244) in MEF TSCl−/− cells; experiment: Cell-based assay for rapalog potency (pS6) in MEF TSCl−/− cells; details: Mus musculus, 2 hours treatment, average from multiple assays
# Procedure: Rapalog potency was determined using MEF TSCl−/− cell based assay. MEF TSCl−/− cells are Mouse Embryonic Fibroblasts deficient in Tuberous sclerosis protein—TSCl, which negatively regulates mTORc1 signaling and thus display constitutive mTORc1 activation, resulting in phosphorylation (activation) of downstream molecules. This cell-based assay is used to measure inhibition (de-phosphorylation) of S6 and 4EBP1 by rapalogs or other mTOR inhibitors.
# MEF TSCl−/− cells were plated on Poly-D-lysine coated 384 well Griener clear bottom plates and incubated overnight at 37° C., 5% CO2. On the following day, cells were washed 8 times with “Hard starve” solution (1 L DPBS+1 g D-(+) glucose+10 ml of 7.5% Sodium Bicarbonate+20 ml of 1M HEPES) and incubated for further 2 hours in the same solution. Cells were next treated with compounds with decreasing concentrations (8 points at 3.16 fold dilutions) and incubated for 2 hours at 37° C., 5% CO2. Cells were fixed with 4% paraformaldehyde for 30 min and washed 5 times with TBS-EDTA followed by immuno-staining with fluorescent tag labeled antibodies for pS6 (Ser240/244) (Cell Signaling #9468) and p4EBP1 (Thr 37/46) (Cell Signaling #5123). Nuclei were visualized with Hoechst (ThermoFisher Scientific #H3570) staining. Cells were imaged (InCell 600) using respective fluorescence channels and the potency of mTOR inhibitors was defined by pS6 IC50 (nM).
# In vitro potency of mTOR inhibitors was defined by pS6 IC50 (nM) in MEF TSCl−/− cells.
# IC50 values are calculated as the average from multiple assays.
# [3] = target: T2, FKBP52 (Homo sapiens, UniProt Q02790); experiment: SPR assay, binding affinity to FKBP52; details: equilibrium dissociation constant
# T2 construct: made in house; host or cells: E. coli
# T2 sequence (Q02790 1-459): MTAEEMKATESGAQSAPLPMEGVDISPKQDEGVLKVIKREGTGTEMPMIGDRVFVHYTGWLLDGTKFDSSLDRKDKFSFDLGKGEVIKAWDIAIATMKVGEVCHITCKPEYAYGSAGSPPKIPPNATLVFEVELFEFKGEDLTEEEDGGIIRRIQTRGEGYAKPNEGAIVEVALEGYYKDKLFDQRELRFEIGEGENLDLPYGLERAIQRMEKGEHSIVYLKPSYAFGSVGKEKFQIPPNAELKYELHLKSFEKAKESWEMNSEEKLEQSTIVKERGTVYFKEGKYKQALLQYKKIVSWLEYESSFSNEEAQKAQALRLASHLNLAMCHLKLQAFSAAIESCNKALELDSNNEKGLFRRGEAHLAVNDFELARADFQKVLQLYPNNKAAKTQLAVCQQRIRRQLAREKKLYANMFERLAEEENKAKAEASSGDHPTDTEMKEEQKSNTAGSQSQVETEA
# Procedure: N-terminal avi-his6-tagged FKBP fusion proteins were expressed in E. coli and purified with nickel chromatography using standard procedures. Biotinylated his-avi-FKBPs were immobilized on a streptavidin chip using a Biacore 8K (GE Healthcare). To determine the kinetics-affinity of the rapalogs for FKBPs, rapalogs were diluted in DMSO to 50× working concentration. Next, 3.1 uLs of each rapalog solution was added to 150 uLs of buffer (50 mM Tris pH 7.5/150 mM NaCl/0.01% Tween 20/1 mM DTT) in a 384 deep well plate (greiner bio-one/78127) and mixed using a Biomek FX. The rapalog solution gradients (6 concentrations/2 fold dilutions, 3.1-100 nM or 31-1000 nM or 310-10000 nM) were then injected at 45 uL/min for 120 seconds: contact time and dissociation time was 1800 seconds in running buffer (50 mM Tris pH 7.5/150 mM NaCl/0.01% Tween 20/1 mM DTT/2% DMSO). The single-cycle kinetics data were fit to a 1:1 binding model to measure the association rate ka (1/Ms), the dissociation rate kd (1/s) and the affinity KD (M). […] 3.1 uLs of the 500 μM rapalog solutions were added to 150 uLs of the mTOR samples in a 384 deep well plate (greiner bio-one/78127) and mixed using a Biomek FX. The mTOR solution gradients were then injected at 45 uL/min for 120 seconds: contact time and dissociation time was 1800 seconds in running buffer (50 mM Tris pH 7.5/150 mM NaCl/0.01% Tween 20/1 mM DTT/2% DMSO). The single-cycle kinetics data was fit to a 1:1 binding model to measure the association rate ka (1/Ms), the dissociation rate kd (1/s) and the apparent affinity KD (M) for ternary complex formation.
# The equilibrium dissociation constants (KD) to FKBP12, FKBP51, and FKBP52 are shown below in Table 6.
# [4] = target: T3, FKBP51 (Homo sapiens, UniProt Q13451); experiment: SPR assay, binding affinity to FKBP51; details: equilibrium dissociation constant
# T3 construct: made in house; host or cells: E. coli
# T3 sequence (Q13451 1-457): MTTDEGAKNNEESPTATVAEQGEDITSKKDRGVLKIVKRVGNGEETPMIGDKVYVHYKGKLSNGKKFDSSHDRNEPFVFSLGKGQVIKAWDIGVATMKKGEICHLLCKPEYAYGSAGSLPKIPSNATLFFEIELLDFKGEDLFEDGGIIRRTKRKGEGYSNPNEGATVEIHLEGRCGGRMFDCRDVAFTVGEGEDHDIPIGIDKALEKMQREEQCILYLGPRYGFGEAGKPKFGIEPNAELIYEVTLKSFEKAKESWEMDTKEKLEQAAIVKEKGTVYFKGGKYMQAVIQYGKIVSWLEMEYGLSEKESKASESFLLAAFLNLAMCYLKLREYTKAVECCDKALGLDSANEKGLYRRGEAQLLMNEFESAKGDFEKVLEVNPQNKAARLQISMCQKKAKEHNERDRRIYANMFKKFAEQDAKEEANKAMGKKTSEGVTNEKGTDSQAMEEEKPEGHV
# From the text: as §1
# T1 sequence (P62942 whole entry): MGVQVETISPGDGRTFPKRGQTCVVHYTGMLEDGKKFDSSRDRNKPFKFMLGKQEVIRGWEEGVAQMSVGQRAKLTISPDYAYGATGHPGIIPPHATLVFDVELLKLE
Compound,Kd [1] [nM],IC50 [2] [nM],Kd [3] [nM],Kd [4] [nM]
CO[C@@H]1C[C@H](C[C@@H](C)[C@@H]2CC[C@H](C)/C=C(\C)[C@@H](O)[C@@H](OC)C(=O)[C@H](C)C[C@H](C)/C=C/C=C/C=C(\C)[C@@H](NS(=O)(=O)C3CC3)C[C@@H]3CC[C@@H](C)[C@@](O)(O3)C(=O)C(=O)N3CCCC[C@H]3C(=O)O2)CC[C@H]1O [Compound 11],0.29,0.94,63,45
CO[C@@H]1C[C@H](C[C@@H](C)[C@@H]2CC[C@H](C)/C=C(\C)[C@@H](O)[C@@H](OC)C(=O)[C@H](C)C[C@H](C)/C=C/C=C/C=C(\C)[C@H](NS(=O)(=O)CCCCl)C[C@@H]3CC[C@@H](C)[C@@](O)(O3)C(=O)C(=O)N3CCCC[C@H]3C(=O)O2)CC[C@H]1O [Compound 18],0.73,6.6,436,573
CO[C@@H]1C[C@H](C[C@@H](C)[C@@H]2CC[C@H](C)/C=C(\C)[C@@H](O)[C@@H](OC)C(=O)[C@H](C)C[C@H](C)/C=C/C=C/C=C(\C)[C@@H](NS(C)(=O)=O)C[C@@H]3CC[C@@H](C)[C@@](O)(O3)C(=O)C(=O)N3CCCC[C@H]3C(=O)O2)CC[C@H]1OCCO [Compound 26],0.83,0.086,80,47
CO[C@@H]1C[C@H](C[C@@H](C)[C@@H]2CC[C@H](C)/C=C(\C)[C@@H](O)[C@@H](OC)C(=O)[C@H](C)C[C@H](C)/C=C/C=C/C=C(\C)[C@H](NS(C)(=O)=O)C[C@@H]3CC[C@@H](C)[C@@](O)(O3)C(=O)C(=O)N3CCCC[C@H]3C(=O)O2)CC[C@H]1O [Compound 1],0.061,0.55,9.8,11
CO[C@@H]1C[C@H](C[C@@H](C)[C@@H]2CC[C@H](C)/C=C(\C)[C@@H](O)[C@@H](OC)C(=O)[C@H](C)C[C@H](C)/C=C/C=C/C=C(\C)[C@H](NS(=O)(=O)C3CC3)C[C@@H]3CC[C@@H](C)[C@@](O)(O3)C(=O)C(=O)N3CCCC[C@H]3C(=O)O2)CC[C@H]1O [Compound 12],0.39,1.1,135,117
CCS(=O)(=O)N[C@@H]1C[C@@H]2CC[C@@H](C)[C@@](O)(O2)C(=O)C(=O)N2CCCC[C@H]2C(=O)O[C@H]([C@H](C)C[C@@H]2CC[C@@H](O)[C@H](OC)C2)CC[C@H](C)/C=C(\C)[C@@H](O)[C@@H](OC)C(=O)[C@H](C)C[C@H](C)/C=C/C=C/C=C/1C [Compound 4],0.55,1.2,256,315
CO[C@@H]1C[C@H](C[C@@H](C)[C@@H]2CC[C@H](C)/C=C(\C)[C@@H](O)[C@@H](OC)C(=O)[C@H](C)C[C@H](C)/C=C/C=C/C=C(\C)[C@H](N(O)C(=O)OC(C)(C)C)C[C@@H]3CC[C@@H](C)[C@@](O)(O3)C(=O)C(=O)N3CCCC[C@H]3C(=O)O2)CC[C@H]1O [Compound 34],–,27,–,–
CCS(=O)(=O)N[C@H]1C[C@@H]2CC[C@@H](C)[C@@](O)(O2)C(=O)C(=O)N2CCCC[C@H]2C(=O)O[C@H]([C@H](C)C[C@@H]2CC[C@@H](O)[C@H](OC)C2)CC[C@H](C)/C=C(\C)[C@@H](O)[C@@H](OC)C(=O)[C@H](C)C[C@H](C)/C=C/C=C/C=C/1C [Compound 3],0.2,0.26,61,40
"CO[C@@H]1C[C@H](C[C@@H](C)[C@@H]2CC[C@H](C)/C=C(\C)[C@@H](O)[C@@H](OC)C(=O)[C@H](C)C[C@H](C)/C=C/C=C/C=C(\C)C(N(C)S(C)(=O)=O)C[C@@H]3CC[C@@H](C)[C@@](O)(O3)C(=O)C(=O)N3CCCC[C@H]3C(=O)O2)CC[C@H]1O (single isomer, unassigned) [Compound 42]",6.5,0.3,1380,1230
CO[C@@H]1C[C@H](C[C@@H](C)[C@@H]2CC[C@H](C)/C=C(\C)[C@@H](O)[C@@H](OC)C(=O)[C@H](C)C[C@H](C)/C=C/C=C/C=C(\C)[C@@H](NS(C)(=O)=O)C[C@@H]3CC[C@@H](C)[C@@](O)(O3)C(=O)C(=O)N3CCCC[C@H]3C(=O)O2)CC[C@H]1OP(C)(C)=O [Compound 24],0.54,0.52,90,25
CO[C@@H]1C[C@H](C[C@@H](C)[C@@H]2CC[C@H](C)/C=C(\C)[C@@H](O)[C@@H](OC)C(=O)[C@H](C)C[C@H](C)/C=C/C=C/C=C(\C)[C@@H](NS(=O)(=O)C3CCCC3)C[C@@H]3CC[C@@H](C)[C@@](O)(O3)C(=O)C(=O)N3CCCC[C@H]3C(=O)O2)CC[C@H]1O [Compound 15],–,3.6,–,–
CO[C@@H]1C[C@H](C[C@@H](C)[C@@H]2CC[C@H](C)/C=C(\C)[C@@H](O)[C@@H](OC)C(=O)[C@H](C)C[C@H](C)/C=C/C=C/C=C(\C)[C@@H](NS(=O)(=O)CCCCl)C[C@@H]3CC[C@@H](C)[C@@](O)(O3)C(=O)C(=O)N3CCCC[C@H]3C(=O)O2)CC[C@H]1O [Compound 17],–,1.6,–,–
CO[C@@H]1C[C@H](C[C@@H](C)[C@@H]2CC[C@H](C)/C=C(\C)[C@@H](O)[C@@H](OC)C(=O)[C@H](C)C[C@H](C)/C=C/C=C/C=C(\C)[C@H](NCCS(=O)(=O)O)C[C@@H]3CC[C@@H](C)[C@@](O)(O3)C(=O)C(=O)N3CCCC[C@H]3C(=O)O2)CC[C@H]1OCCO [Compound 41],–,33,–,–
CO[C@@H]1C[C@H](C[C@@H](C)[C@@H]2CC[C@H](C)/C=C(\C)[C@@H](O)[C@@H](OC)C(=O)[C@H](C)C[C@H](C)/C=C/C=C/C=C(\C)[C@H](N)C[C@@H]3CC[C@@H](C)[C@@](O)(O3)C(=O)C(=O)N3CCCC[C@H]3C(=O)O2)CC[C@H]1O [Compound 29],–,30,–,–
